Measurements as given in patent US7105577B2, “Antimicrobial method using a hydroxydiphenyl ether compound” (Ciba Specialty Chemicals Corporation, priority 1999, dated 2006).
≈ marks a conversion by molar mass, not a printed value. Read-outs that look alike come from different tables or passages of the source.

Tests used:
Assay type in all cases: cell-based
[1] = tested on: Staphylococcus hominis DSM 20328; assay: Agar incorporation test, MIC; settings: for MIC: DSM20328, Table 1, Staphylococcus hominis DSM 20328, agar incorporation, read-out: Minimum Inhibitory Concentration, SH
[2] = tested on: Escherichia coli NCTC 8196; assay: Agar incorporation test, MIC; settings: for MIC: NCTC8196
From the text: (§1) Medium: • Nutrient agar as test agar for bacteria: • Mueller hinton agar to cultivate the aerobic bacteria • Mueller hinton bouillon for obtaining the suspension of microorganisms • Ethanol as solvent • Wilkins-Chalgren agar to cultivate the […] bacteria • Sabouraud glucose agar to cultivate the dermatophytes
(§2) Examples of Test bacteria • Staphylococcus aureusATCC 6538 • Staphylococcus hominis DSM 20330 • Escherichia coli NCTC 8196 • Pseudomonas aeruginosa CIP A-22 • Candida albicans ATCC 10231 • Aspergillus niger ATCC 6275
(§3) Procedure: The test substances are dissolved in ethanol, and a dilution series of the compound of the formula (102) in agar are prepared. • Anaerobic bacteria and dermatophytes are activated on agar-plates, and washes off with Mueller-Hinton bouillon. Aerobic bacteria are activated in Mueller-Hinton bouillon overnight. The test germ suspension are diluted with Mueller-Hinton bouillon to a density of McFarland standard 0.5. • 10 μl of each germ suspension is dropped onto the agar plates containing the test substance, and the plates are then incubated at 37° C. for 2 days. (Aerobic bacteria are incubated at 36° C. for 72 hours, anaerobic bacteria are incubated at 30° C. for 72 hours). As controls, the bacterial suspensions are applied to agar plates without test substances.

[3] = tested on: Candida albicans ATCC 10231; assay: Agar incorporation test, MIC; settings: for MIC: ATCC10231
From the text: as §1, §2, §3

[4] = tested on: Aspergillus niger ATCC 6275; assay: Agar incorporation test, MIC; settings: for MIC: ATCC6275
From the text: as §1, §2, §3

[5] = tested on: Staphylococcus aureus ATCC 6538; assay: Agar incorporation test, MIC; settings: for MIC: ATCC6538
From the text: as §1, §2, §3

[6] = tested on: Pseudomonas aeruginosa CIP A-22; assay: Agar incorporation test, MIC; settings: for MIC: CIPA22
From the text: as §1, §2, §3

[7] = tested on: Corynebacterium xerosis ATCC 373/ATCC 7711; assay: Microbiological data (MIC); settings: Table 4
Description: as §1, §3
(§4) Microbiological data of the above compounds (MIC in ppm): […]

[8] = tested on: Streptococcus sobrinus DSM 20742; assay: Microbiological data (MIC); settings: Table 4
Description: as §1, §3, §4

[9] = tested on: Porphyromonas gingivalis DSM 20709; assay: Microbiological data (MIC); settings: Table 4
Description: as §1, §3, §4

[10] = tested on: Trichophyton mentagrophytes ATCC 9553; assay: Microbiological data (MIC); settings: Table 4
Description: as §1, §3, §4

[11] = tested on: Epidermophyton floccosum CBS 55384; assay: Microbiological data (MIC); settings: Table 4
Description: as §1, §3, §4

[12] = tested on: Corynebacterium minutissimum ATCC 23348; assay: Microbiological data (MIC); settings: Table 4
Description: as §1, §3, §4

[13] = tested on: Staphylococcus epidermidis ATCC 12228; assay: Microbiological data (MIC); settings: Table 4
Description: as §1, §3, §4

[14] = tested on: Selenomonas artemidis ATCC 43528; assay: Microbiological data (MIC); settings: Table 4
Description: as §1, §3, §4

[15] = tested on: Trichophyton rubrum DSM 4167; assay: Microbiological data (MIC); settings: Table 4
Description: as §1, §3, §4

[16] = tested on: Proteus vulgaris ATCC 6896; assay: Microbiological data (MIC); settings: Table 4
Description: as §1, §3, §4

[17] = tested on: Actinomyces viscosum DSM 43329; assay: Microbiological data (MIC); settings: Table 4
Description: as §1, §3, §4

[18] = tested on: Propionibacterium acnes ATCC 11829; assay: Microbiological data (MIC); settings: Table 4
Description: as §1, §3, §4

[19] = tested on: Malassezia furfur DSM 6171; assay: Microbiological data (MIC); settings: DSM6171, Table 4
Description: as §1, §3, §4

[20] = Table 1, Escherichia coli NCTC 8196, agar incorporation, read-out: Minimum Inhibitory Concentration, EC
[21] = Table 1, Candida albicans ATCC 10231, agar incorporation, read-out: Minimum Inhibitory Concentration, CA
[22] = Table 1, Aspergillus niger ATCC 6275, agar incorporation, read-out: Minimum Inhibitory Concentration, AN
[23] = Table 1, Staphylococcus aureus ATCC 6538, agar incorporation, read-out: Minimum Inhibitory Concentration, SA
[24] = Table 1, Pseudomonas aeruginosa CIP A-22, agar incorporation, read-out: Minimum Inhibitory Concentration, PA

| Compound | MIC [1] [µg/mL] | MIC [2, 20] [µg/mL] | MIC [3, 21] [µg/mL] | MIC [4, 22] [µg/mL] | other results |
| --- | --- | --- | --- | --- | --- |
| CCCCc1ccc(Oc2ccccc2)cc1O [(104)] | 30 (≈ 124 µM) | 30 (≈ 124 µM) | 30 (≈ 124 µM) | 60 (≈ 248 µM) |  |
| CCCc1ccc(Oc2ccccc2)cc1O [(105)] | 30 (≈ 131 µM) | 30 (≈ 131 µM) | 30 (≈ 131 µM) | 30 (≈ 131 µM) |  |
| CCCCCc1ccc(Oc2ccccc2)cc1O [(106)] | 30 (≈ 117 µM) | 30 (≈ 117 µM) | 60 (≈ 234 µM) | 60 (≈ 234 µM) |  |
| Oc1ccccc1Oc1ccccc1 [(107)] | 30 (≈ 161 µM) | 30 (≈ 161 µM) |  | 120 (≈ 644 µM) |  |
| CCC(=O)c1ccc(O)c(Oc2ccccc2)c1 [(108)] | 60 (≈ 248 µM) | 120 (≈ 495 µM) |  |  |  |
| CCCC(=O)c1ccc(O)c(Oc2ccccc2)c1 [(109)] | 30 (≈ 117 µM) | 30 (≈ 117 µM) | 120 (≈ 468 µM) | 120 (≈ 468 µM) |  |
| O=Cc1ccc(O)c(Oc2ccccc2)c1 [(110)] |  | 30 (≈ 140 µM) |  |  |  |
| CCC(C)c1ccccc1Oc1ccccc1O (stereo not shown) [(111)] | 60 (≈ 248 µM) |  | 30 (≈ 124 µM) | 120 (≈ 495 µM) |  |
| CC(C)c1ccccc1Oc1ccccc1O [(112)] | 60 (≈ 263 µM) |  | 60 (≈ 263 µM) | 120 (≈ 526 µM) |  |
| Cc1ccccc1Oc1ccccc1O [(113)] | 30 (≈ 150 µM) | 30 (≈ 150 µM) | 120 (≈ 599 µM) | 60 (≈ 300 µM) |  |
| CC(C)(C)c1ccccc1Oc1ccccc1O [(114)] | 30 (≈ 124 µM) | 30 (≈ 124 µM) | 60 (≈ 248 µM) | 120 (≈ 495 µM) |  |
| CCc1ccccc1Oc1ccccc1O [(115)] | 120 (≈ 560 µM) | 120 (≈ 560 µM) | 120 (≈ 560 µM) | 120 (≈ 560 µM) |  |
| CCC(C)c1ccccc1Oc1cccc(O)c1 (stereo not shown) [(116)] | 30 (≈ 124 µM) |  | 30 (≈ 124 µM) | 30 (≈ 124 µM) |  |
| Oc1ccc(Oc2ccccc2O)cc1 [(117)] |  | 60 (≈ 297 µM) |  |  |  |
| Cc1ccc(C(C)C)c(Oc2ccc(O)cc2)c1 [(118)] | 3 (≈ 12.4 µM) | 50 (≈ 206 µM) | 50 (≈ 206 µM) |  | MIC [5, 23]: 5 µg/mL (≈ 20.6 µM) |
| Cc1ccc(C2CCCCC2)c(Oc2ccc(O)cc2)c1 [(119)] | 3 (≈ 10.6 µM) |  |  |  | MIC [5, 23]: 3 µg/mL (≈ 10.6 µM) |
| CC(C)CCc1ccc(Oc2ccc(O)cc2)cc1 [(120)] | 4 (≈ 15.6 µM) |  |  |  |  |
| Cc1ccc(C(C)(C)C)c(Oc2ccc(O)cc2)c1 [(121)] | 5 (≈ 19.5 µM) |  | 13 (≈ 50.7 µM) |  | MIC [5, 23]: 7 µg/mL (≈ 27.3 µM) |
| Cc1ccc(C(C)C)cc1Oc1ccc(O)cc1 [(122)] | 6 (≈ 24.8 µM) |  | 13 (≈ 53.6 µM) |  | MIC [5, 23]: 6 µg/mL (≈ 24.8 µM) |
| Oc1ccc(Oc2ccc(CCc3ccccc3)cc2)cc1 [(123)] | 8 (≈ 27.6 µM) |  |  |  |  |
| CCc1ccc(Oc2ccc(O)cc2)c(C(C)C)c1 [(124)] | 8 (≈ 31.2 µM) |  | 60 (≈ 234 µM) |  |  |
| CCCc1ccc(Oc2ccc(O)cc2)cc1 [(125)] | 30 (≈ 131 µM) | 120 (≈ 526 µM) | 30 (≈ 131 µM) |  |  |
| CCc1ccc(Oc2ccc(O)cc2)cc1 [(126)] | 120 (≈ 560 µM) | 120 (≈ 560 µM) | 120 (≈ 560 µM) |  |  |
| Oc1ccc(Oc2ccccc2)cc1 [(127)] |  | 100 (≈ 537 µM) | 50 (≈ 269 µM) |  | MIC [6, 24]: 50 µg/mL (≈ 269 µM); MIC [5, 23]: 500 µg/mL (≈ 2690 µM) |
| Oc1ccc(Oc2ccc(C(F)(F)F)cc2)cc1 [(128)] |  | 50 (≈ 197 µM) | 50 (≈ 197 µM) |  | MIC [6, 24]: 50 µg/mL (≈ 197 µM); MIC [5, 23]: 50 µg/mL (≈ 197 µM) |
| Cc1ccc(C)c(Oc2ccc(O)cc2)c1 [(129)] |  |  | 25 (≈ 117 µM) |  | MIC [6, 24]: 25 µg/mL (≈ 117 µM); MIC [5, 23]: 50 µg/mL (≈ 233 µM) |
| CCCc1ccc(Oc2ccc(O)cc2)c(C(C)C)c1 [(130)] |  |  | 20 (≈ 74 µM) |  | MIC [6, 24]: 20 µg/mL (≈ 74 µM); MIC [5, 23]: 50 µg/mL (≈ 185 µM) |
| Cc1ccc(C(C)C)cc1Oc1ccc(O)cc1 [R1 = Me R2 = i-Propyl] |  |  |  |  | MIC, Staphylococcus hominis DSM 20328 ([1]; Table 4): 6.25 ppm; MIC, Pseudomonas aeruginosa CIP A-22 ([6]; Table 4): >200 ppm; MIC, Escherichia coli NCTC 8196 ([2]; Table 4): >200 ppm; MIC, Staphylococcus aureus ATCC 6538 ([5]; Table 4): 6.25 ppm; MIC, Candida albicans ATCC 10231 ([3]; Table 4): 12.5 ppm; MIC, Aspergillus niger ATCC 6275 ([4]; Table 4): 50 ppm; MIC, Corynebacterium xerosis ATCC 373/ATCC 7711 [7]: 3.125 ppm; MIC, Streptococcus sobrinus DSM 20742 [8]: 5 ppm; MIC, Porphyromonas gingivalis DSM 20709 [9]: 5 ppm; MIC, Trichophyton mentagrophytes ATCC 9553 [10]: 6.25 ppm; MIC, Epidermophyton floccosum CBS 55384 [11]: <3.125 ppm; MIC, Corynebacterium minutissimum ATCC 23348 [12]: 6.25 ppm; MIC, Staphylococcus epidermidis ATCC 12228 [13]: 6.25 ppm; MIC, Selenomonas artemidis ATCC 43528 [14]: 10 ppm; MIC, Trichophyton rubrum DSM 4167 [15]: 5 ppm; MIC, Proteus vulgaris ATCC 6896 [16]: >200 ppm; MIC, Actinomyces viscosum DSM 43329 [17]: 80 ppm; MIC, Propionibacterium acnes ATCC 11829 [18]: 10 ppm |
| Cc1ccc(C)c(Oc2ccc(O)cc2)c1 [R1 = R2 = Me] |  |  |  |  | MIC, Pseudomonas aeruginosa CIP A-22 ([6]; Table 4): >200 ppm; MIC, Escherichia coli NCTC 8196 ([2]; Table 4): >200 ppm; MIC, Staphylococcus aureus ATCC 6538 ([5]; Table 4): 50.0 ppm; MIC, Candida albicans ATCC 10231 ([3]; Table 4): 25.0 ppm; MIC, Corynebacterium xerosis ATCC 373/ATCC 7711 [7]: 25.0 ppm; MIC, Corynebacterium minutissimum ATCC 23348 [12]: 25.0 ppm; MIC, Staphylococcus epidermidis ATCC 12228 [13]: 25.0 ppm; MIC, Proteus vulgaris ATCC 6896 [16]: >200 ppm |
| Cc1ccc(C(C)(C)C)c(Oc2ccc(O)cc2)c1 [R1 = t-Butyl R2 = Me, 4-(2-t-Butyl-5-methylphenoxy)phenol] |  |  |  |  | MIC ([6]; Pseudomonas aeruginosa, Table 4, read-out: MIC, Pseudomonas aeruginosa CIP A-22): > 100 µg/mL; MIC ([2]; Escherichia coli, Table 4, read-out: MIC, Escherichia coli NCTC 8196): > 100 µg/mL; MIC ([5]; Staphylococcus aureus, Table 4, read-out: MIC, Staphylococcus aureus ATCC 6538): 6.75 µg/mL (≈ 26.3 µM); MIC ([3]; Candida albicans, Table 4, read-out: MIC, Candida albicans ATCC 10231): 12.5 µg/mL (≈ 48.8 µM); MIC ([4]; Aspergillus niger, Table 4, read-out: MIC, Aspergillus niger ATCC 6275): 6.75 µg/mL (≈ 26.3 µM); MIC ([7]; Corynebacterium xerosis): 3.4 µg/mL (≈ 13.3 µM); MIC ([8]; Streptococcus sobrinus, DSM20742): 5 µg/mL (≈ 19.5 µM); MIC ([9]; Porphyromonas gingivalis, DSM20709): 1.25 µg/mL (≈ 4.88 µM); MIC [19]: 2.5 µg/mL (≈ 9.75 µM); MIC ([10]; Trichophyton mentagrophytes, ATCC9553): 3.4 µg/mL (≈ 13.3 µM); MIC ([11]; Epidermophyton floccosum, CBS55384): 1.65 µg/mL (≈ 6.44 µM); MIC ([12]; Corynebacterium minutissimum, ATCC23348): 3.4 µg/mL (≈ 13.3 µM); MIC ([13]; Staphylococcus epidermidis, ATCC12228): 3.4 µg/mL (≈ 13.3 µM); MIC ([14]; Centipeda artemidis, ATCC43528): 5 µg/mL (≈ 19.5 µM); MIC ([15]; Trichophyton rubrum, DSM4167): 10 µg/mL (≈ 39 µM); MIC ([16]; Proteus vulgaris, ATCC6896): > 100 µg/mL; MIC ([17]; Actinomyces, DSM43329): 5 µg/mL (≈ 19.5 µM); MIC ([18]; Cutibacterium acnes, ATCC11829): 5 µg/mL (≈ 19.5 µM) |
